Experimental data: US9359351B2, “Cap/endo dual inhibitors and their use in the treatment, amelioration or prevention of a viral disease” (priority 2014, dated 2016)

Columns and labels:
[1] = biological target: PB2 cap binding domain (CBD) of an avian H5N1 influenza virus (Influenza A virus, UniProt Q9Q0V1); experiment: biochemical; details: Biacore KD
[2] = biological target: T1, influenza A virus (IAV) PA-Nter fragment (amino acids 1-209) (Influenza A virus, UniProt P31343); experiment: biochemical; details: FRET IC50
T1 construct: PA-Nter fragment (amino acids 1-209); made in house

[3] = tested on: influenza A virus (IAV) A/Aichi/2/68 (H3N2); experiment: microbe, parasite or virus in culture; type: cell-based, influenza A virus A/Aichi/2/68 (H3N2) on MDCK cells; details: H3N2, MDCK; for IC50: 48 h, read-out: CPE IC50; for inhibition at 50 µM: read-out: CPE % inhib
[4] = biological target: whole RNP complex, IAV strain A/PR/8/34 (Influenza A virus, UniProt P03428+P03433); experiment: biochemical

PB2 cap binding domain (CBD) of an avian H5N1 influenza virus, sequence (Q9Q0V1 318-483 limits assumed): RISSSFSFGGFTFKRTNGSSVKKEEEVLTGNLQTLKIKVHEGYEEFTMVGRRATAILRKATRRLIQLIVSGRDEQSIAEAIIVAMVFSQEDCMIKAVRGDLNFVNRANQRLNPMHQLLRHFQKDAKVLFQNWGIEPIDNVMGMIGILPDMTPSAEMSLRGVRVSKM

Structure (SMILES)	Kd [1]	IC50 [2]	IC50 [3]	IC50 [4]	inhibition at 50 µM [3]
CC(C)N1CCn2c(CNC(=O)[C@H](NC(=O)c3cccn4c(=O)[nH]nc34)c3ccccc3)cc(=O)c(O)c2C1=O	> 100 µM	9.87 µM	> 50 µM	–	–
CC(C)N1CCn2c(CNC(=O)C3(NC(=O)c4c[nH]c5ncc(C6CC6)nc45)CCCCC3)cc(=O)c(O)c2C1=O	–	–	> 50 µM	0.38 µM	–
CC(C)N1CCn2c(CNC(=O)[C@@H](Cc3cccc(Cl)c3)NC(=O)c3ccc4n[nH]c(=O)n4c3)cc(=O)c(O)c2C1=O	> 100 µM	2.88 µM	51.7 µM	–	–
CC(C)[C@@H](CC(=O)NCc1cc(=O)c(O)c2n1CCN(C(C)C)C2=O)Nc1nc(C2=CN3C(=O)N=NC3C=C2)ncc1F (stereo partly shown)	–	–	> 1.28 µM	8.15 µM	–
CC(C)N1CCn2c(CNC(=O)[C@H](Cc3cccc(Cl)c3)NC(=O)c3cccn4c(=O)[nH]nc34)cc(=O)c(O)c2C1=O	475 µM	0.291 µM	31.2 µM	–	–
CC(C)N1CCn2c(CNC(=O)c3cccc(Nc4nccc5[nH]ncc45)c3)cc(=O)c(O)c2C1=O	97.6 µM	0.55 µM	21.8 µM	–	–
CC(C)[C@H](NC(=O)c1cccn2c(=O)[nH]nc12)c1cc(=O)c(O)c2n1CCN(C(C)C)C2=O	163 µM	0.83 µM	> 50 µM	–	–
CC(C)N1CCn2c(CNC(=O)C3(NC(=O)c4cccn5c(=O)[nH]nc45)CCCCC3)cc(=O)c(O)c2C1=O	> 25 µM	2.84 µM	> 50 µM	–	–
CC(C)N1CCn2c(CNC(=O)CC(Nc3nc(-c4n[nH]c5ncc(F)cc45)ncc3F)C3CC3)cc(=O)c(O)c2C1=O (stereo not shown)	8.16 µM	19.7 µM	48 µM	–	–
CCC(Nc1nc(-c2n[nH]c3ncc(F)cc23)ncc1F)C(=O)NCc1cc(=O)c(O)c2n1CCN(C(C)C)C2=O (stereo not shown)	–	12.2 µM	> 50 µM	–	–
CC(C)N1CCn2c(CNC(=O)C[C@H](NC(=O)c3c[nH]c4ncc(C5CC5)nc34)c3ccccc3)cc(=O)c(O)c2C1=O	–	–	> 33.7 µM	1.53 µM	–
CC(C)N1CCn2c(CNCCOC(=O)c3cccn4c(=O)[nH]nc34)cc(=O)c(O)c2C1=O	> 100 µM	1.41 µM	> 50 µM	–	–
CC(C)N1CCn2c(CNC(=O)[C@H](NC(=O)c3c[nH]c4ncc(C5CC5)nc34)c3ccccc3)cc(=O)c(O)c2C1=O	–	2.34 µM	8.2 µM	–	–
CC(C)N1CCn2c(CNC(=O)c3cccc(NC(=O)c4n[nH]c5ncccc45)c3)cc(=O)c(O)c2C1=O [drawing 28]	26.3 µM	1.51 µM	> 50 µM	–	–
CC(C)N1CCn2c(CNC(=O)[C@@H](Cc3cccc(Cl)c3)NC(=O)c3n[nH]c4ncccc34)cc(=O)c(O)c2C1=O	55.1 µM	1.09 µM	> 50 µM	–	–
CC(C)N1CCn2c(CNC(=O)CCCCCNc3nc(-c4n[nH]c5ncc(F)cc45)ncc3F)cc(=O)c(O)c2C1=O	0.42 µM	19.7 µM	15 µM	–	–
CC(C)[C@H](Nc1nc(C2=CN3C(=O)N=NC3C=C2)ncc1F)C(=O)NCc1cc(=O)c(O)c2n1CCN(C(C)C)C2=O (stereo partly shown)	–	–	> 50 µM	> 50 µM	–
CC(C)N1CCn2c(CNC(=O)c3cccc(NC(=O)c4n[nH]c5ncccc45)c3)cc(=O)c(O)c2C1=O [drawing 29]	19.6 µM	1.22 µM	–	–	–
CCC(NC(=O)c1cccn2c(=O)[nH]nc12)C(=O)NCc1cc(=O)c(O)c2n1CCN(C(C)C)C2=O (stereo not shown)	6.3 µM	0.43 µM	> 50 µM	–	–
CC(C)N1CCn2c(CNc3nccc4[nH]ncc34)cc(=O)c(O)c2C1=O	> 100 µM	0.4 µM	> 50 µM	–	–
CC(C)N1CCn2c(CNC(=O)[C@H](NC(=O)c3ccc4n[nH]c(=O)n4c3)c3ccccc3)cc(=O)c(O)c2C1=O	> 100 µM	1.45 µM	> 50 µM	–	–
CC(C)N1CCn2c(CNCCNc3nccc4[nH]ncc34)cc(=O)c(O)c2C1=O	–	1.46 µM	> 50 µM	–	–

Structure (SMILES)	Kd [1]	IC50 [2]	IC50 [3]	IC50 [4]	inhibition at 50 µM [3]
CC(C)N1CCn2c(CNC(=O)c3ccc4n[nH]c(=O)n4c3)cc(=O)c(O)c2C1=O	187 µM	0.87 µM	> 50 µM	–	–
CC(C)N1CCn2c(CNC(=O)CCCCCNC(=O)c3c[nH]c4ncc(C5CC5)nc34)cc(=O)c(O)c2C1=O	6.36 µM	0.57 µM	31.8 µM	–	–
CC(C)N1CCn2c(CNC(=O)CCCCCNc3nc(C4=CN5C(=O)N=NC5C=C4)ncc3F)cc(=O)c(O)c2C1=O (stereo not shown)	–	–	> 25 µM	5.35 µM	–
CC(C)N1CCn2c(CNC(=O)CNC(=O)c3c[nH]c4ncc(C5CC5)nc34)cc(=O)c(O)c2C1=O	3.96 µM	0.27 µM	> 50 µM	–	–
CC(C)N1CCn2c(CNC(=O)[C@H]3CCC[C@@H](Nc4nc(-c5n[nH]c6ncc(F)cc56)ncc4F)C3)cc(=O)c(O)c2C1=O	–	> 25 µM	15.1 µM	–	–
CC(C)N1CCn2c(CNC(=O)[C@H](NC(=O)c3c[nH]c4ncc(C5CC5)nc34)C3CC3)cc(=O)c(O)c2C1=O	–	–	–	0.22 µM	47%
CC(C)N1CCn2c(CNC(=O)c3cccn4c(=O)[nH]nc34)cc(=O)c(O)c2C1=O	> 50 µM	0.28 µM	> 50 µM	–	–
CC(C)N1CCn2c(CNc3cccc4n[nH]c(=O)n34)cc(=O)c(O)c2C1=O	99.3 µM	0.936 µM	> 50 µM	–	–
CC(C)N1CCn2c(COC(=O)c3c[nH]c4ncc(C5CC5)nc34)cc(=O)c(O)c2C1=O	9.3 µM	0.49 µM	68.7 µM	–	–
CCC(NC(=O)c1c[nH]c2ncc(C3CC3)nc12)C(=O)NCc1cc(=O)c(O)c2n1CCN(C(C)C)C2=O (stereo not shown)	–	0.46 µM	> 50 µM	–	–
CC(C)N1CCn2c(CNC(=O)CNC(=O)c3ccc4n[nH]c(=O)n4c3)cc(=O)c(O)c2C1=O	14.1 µM	1.94 µM	> 50 µM	–	–
CC(C)N1CCn2c(CNc3cc4[nH]ncc4c(Cl)n3)cc(=O)c(O)c2C1=O	305 µM	0.848 µM	> 50 µM	–	–
CC(C)N1CCn2c(CNC(=O)c3n[nH]c4ncccc34)cc(=O)c(O)c2C1=O	> 100 µM	0.4 µM	> 50 µM	–	–
CC(C)N1CCn2c(CNC(=O)c3c[nH]c4ncc(C5CC5)nc34)cc(=O)c(O)c2C1=O	12.8 µM	0.87 µM	> 25 µM	–	–
CC(C)[C@H](Nc1nc(-c2n[nH]c3ncc(F)cc23)ncc1F)C(=O)NCc1cc(=O)c(O)c2n1CCN(C(C)C)C2=O	10 µM	8.04 µM	> 50 µM	–	–
CC(C)N1CCn2c(CNCCNc3cc4[nH]ccc4c(Cl)n3)cc(=O)c(O)c2C1=O	–	0.58 µM	> 50 µM	–	–
CC(C)N1CCn2c(CNC(=O)CC(NC(=O)c3c[nH]c4ncc(C5CC5)nc34)C3CC3)cc(=O)c(O)c2C1=O (stereo not shown)	–	–	–	0.14 µM	10%
CC(C)N1CCn2c(CNC(=O)c3cccc(NC(=O)c4ccc5n[nH]c(=O)n5c4)c3)cc(=O)c(O)c2C1=O	21.9 µM	1.66 µM	35.1 µM	–	–
CC(C)N1CCn2c(COC(=O)c3cccn4c(=O)[nH]nc34)cc(=O)c(O)c2C1=O	> 100 µM	0.41 µM	> 50 µM	–	–
CC(C)[C@H](NC(=O)c1c[nH]c2ncc(C3CC3)nc12)C(=O)NCc1cc(=O)c(O)c2n1CCN(C(C)C)C2=O	16.8 µM	0.75 µM	42 µM	–	–
CC(C)N1CCn2c(COCCOc3nccc4[nH]ncc34)cc(=O)c(O)c2C1=O	> 100 µM	0.37 µM	> 50 µM	–	–
